Target: T1, human AT1R (Homo sapiens, UniProt P30556)
T1 sequence (P30556 1-359): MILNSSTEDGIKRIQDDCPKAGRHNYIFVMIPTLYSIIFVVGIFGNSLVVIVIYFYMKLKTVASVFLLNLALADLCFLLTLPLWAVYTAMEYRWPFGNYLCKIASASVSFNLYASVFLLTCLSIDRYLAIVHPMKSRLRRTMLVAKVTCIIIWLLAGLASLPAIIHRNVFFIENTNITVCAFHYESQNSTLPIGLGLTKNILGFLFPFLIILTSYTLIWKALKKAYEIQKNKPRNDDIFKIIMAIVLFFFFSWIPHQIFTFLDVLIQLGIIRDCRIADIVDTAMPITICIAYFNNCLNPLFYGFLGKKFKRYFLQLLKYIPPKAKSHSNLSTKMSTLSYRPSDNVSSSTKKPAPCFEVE
Format: cell-based
Conditions: CellKey assay, Fig. 1C

With [Sar^1, Cys^5, Leu^8]‐AngII the “potency at β‐arrestin stimulation relative to AngII and SII” value was “less potent than AngII but more potent than SII”.

Reference: paper PMC4804318 (Pharmacology Research & Perspectives, 2016)
